Consider 5 compounds from ChEMBL document CHEMBL1140606, “Green tea catechins inhibit bacterial DNA gyrase by interaction with its ATP binding site” (J Med Chem, 2007).

Experiment [1] is described as follows: Displacement of fluorescent quercetin from Escherichia coli BL21 (DE3) recombinant DNA gyrase B G24.
The subject of experiment [2] is Escherichia coli. The experiment can be described thus: Inhibition of Escherichia coli DNA gyrase B ATPase activity.
In experiment [3] the test system is Escherichia coli. Briefly: Inhibition of Escherichia coli DNA gyrase B supercoiling activity upto 100 uM.
For experiment [4], the system named is Escherichia coli. The experiment can be described thus: Displacement of picogreen from Escherichia coli DNA gyrase B.
For experiment [5], the system named is Escherichia coli. Briefly: Displacement of ethidium bromide from Escherichia coli DNA gyrase B.
The subject of experiment [6] is Escherichia coli. The experiment can be described thus: Antibacterial activity against Escherichia coli. The class given is functional.
Experiment [7] in a line: (§1) Inhibition of Escherichia coli DNA gyrase B supercoiling activity.
Experiment [8] has as its system Escherichia coli. The experiment is described as §1.

≈ marks a conversion by molar mass, not a printed value. Calls of active or inactive are those of the source.

On to `Oc1cc(O)c2c(c1)O[C@H](c1cc(O)c(O)c(O)c1)[C@H](O)C2` [EPIGALLOCATECHIN], for which, in experiment [1], the dissociation constant Kd (in general, the constant that tells how readily two partners part at equilibrium) was found to be 34 µM. In addition, in the experiment on Escherichia coli [2], the result was Active. For the same compound, the outcome with Escherichia coli [3], with Escherichia coli [4] and with Escherichia coli [5] was inactive. For the same compound, in the experiment with Escherichia coli [6], the MIC (in general, the smallest concentration in the dilution series that meets the test's criterion for growth inhibition) is 100 µM (≈ 30.6 µg/mL).
As to `O=C(O[C@@H]1Cc2c(O)cc(O)cc2O[C@@H]1c1cc(O)c(O)c(O)c1)c1cc(O)c(O)c(O)c1` [EPIGALOCATECHIN GALLATE], the Kd in experiment [1] was 23 µM. Besides, the outcome in the experiment with Escherichia coli [2] was Active. The IC50 (usually the concentration at which inhibition is half-maximal) in experiment [7] was determined as 50 µM. Besides, the outcome in the experiment on Escherichia coli [4] and in the experiment with Escherichia coli [5] was inactive. Further, it took 10 µM (≈ 4.58 µg/mL) to inhibit growth against Escherichia coli [6] (MIC).
As for `Oc1cc(O)c2c(c1)O[C@H](c1ccc(O)c(O)c1)[C@H](O)C2` [(-)-EPICATECHIN], in experiment [1], the Kd amounted to 54 µM. Further, the result in the experiment on Escherichia coli [2], with Escherichia coli [8], in the experiment with Escherichia coli [3], with Escherichia coli [4] and in the experiment with Escherichia coli [5] was inactive. This compound also came in with an MIC in the experiment with Escherichia coli [6] greater than 1000 µM.
As to `O=C(O[C@@H]1Cc2c(O)cc(O)cc2O[C@@H]1c1ccc(O)c(O)c1)c1cc(O)c(O)c(O)c1` [EPICATECHIN GALLATE], the Kd in experiment [1] was 36 µM. The outcome in the experiment with Escherichia coli [2] was Active. The compound also displayed an IC50 in experiment [7] of 50 µM. For the same compound, the result in the experiment on Escherichia coli [4] and in the experiment on Escherichia coli [5] was inactive. In the experiment on Escherichia coli [6], this compound came in with an MIC of 25 µM (≈ 11.1 µg/mL).
`O=c1c(O)c(-c2ccc(O)c(O)c2)oc2cc(O)cc(O)c12` [QUERCETIN]: the dissociation constant (Kd) in experiment [1] stood at 15 µM.
